Assay results published in patent US5236955A, “Anti-fungal agent” (Washington University, priority 1992, dated 1993).
Like-named read-outs stand apart in the source and are kept apart here.

Tests used:
[1] = tested on: C. neoformans; experiment: Viability of C. neoformans (viable cells relative to EtOH control culture); assay type: cell-based, Cryptococcus neoformans; settings: for log reduction at 300 µM: Cryptococcus neoformans
Method: (§1) Panel A, survey of the effects of several oxatetradecanoic acids on the growth of C. neoformans. A culture of C. neoformans was grown at 30° C. in SAB media to midlog phase (A600 ~0.5). A single dose of fatty acid was then added to subcultures (final concentration=300 μM). EtOH(0.1%) was used as a negative control. Amphotericin B (AmB) was added (final concentraton=55 μM) as a positive control. Aliquots were withdrawn from the subcultures 0, 0.5, 2, 4, 7, 21, and 24 h after these additions and then absorbance at 600 nm was measured. All assays were done in duplicate or triplicate. A representative test is shown. Panel B, survey of the effects of oxatetradecanoic acids, dioxatetradecanoic acids and oxatridecanoic acids on the viability of C. neoformans. Fatty acid analog was added to the cultures as in Panel A. Aliquots were withdrawn 0.5, 2, 4, 7 or 8, and 24 h later and plated on SAB-agar at various dilutions to determine the number of viable organisms/ml culture. All assays were done in duplicate. Data from a representative test are expressed as the ratio of viable cells in treated cultures relative to a control culture that received 0.1% EtOH. A positive control culture received a single dose of amphotericin B (55 μM); Panel C, dose-dependent reduction in the viability of C. neoformans after addition of 4-oxatetradecanoic acid (O4) to cultures during log-phase growth at 30° C. in SAB. A single dose of the analog was given at T=0 h in the amount indicated and aliquots of the culture were withdrawn at various times to determine the number of viable cells. All assays were done in triplicate. A representative test is shown.
(§2) Saccharomyces cerevisiae strain YM2061 (MATa ura3-52 his3Δ200 ade2-101 lys2-801 met LEU2::pRY181 can1; Flick and Johnston, Mol. Cell. Biol. 10, 4757-4769 (1990), Candida albicans strain B311 (obtained from the American Type Tissue Culture, Rockville, Md.), or Cryptococcus neoformans strain L210425 (a clinical isolate that is part of the permanent culture collection of the Mycology Laboratory, Barnes Hospital, St. Louis, Mo.) were grown overnight at 30 C. The S. cerevisiae strain was incubated in YPD medium (1% bacto-yeast extract, Gibco, Long Island, N.Y.), 2% bacto-peptone (Gibco), 2% dextrose). The C. albicans and C. neoformans strains were grown in Sabouraud's media (SAB; 2% (w/v) dextrose, 1% bacto-peptone). The following morning the cultures were diluted into fresh medium to the desired density at 600 nm (early log phase), and subsequently incubated in a rotary shaker at 30° C. until an A600 =0.5 (mid log phase) was achieved. The culture was then divided into 10 ml aliquots. A single 10 μl aliquot of a stock solution of fatty acid analog (prepared in various concentrations using absolute ethanol) was added to the culture so that the final concentration of the compound was 100-500 μM (T=0). Ten microliters of ethanol alone was added to one 10 ml culture which served as the negative control. Amphotericin B (AmB; in the form of Fungizone, Squibb) was added (final concentration=55 μM) to another culture which served as the positive control. At T=0 and 0.5-24 h after addition of fatty acid analog to the subcultures, an aliquot was removed for determining the density of the subculture at 600 nm. Cell viability was determined at each of these time points by (i) serially diluting the aliquot in 0.15M NaCl and counting cell number in a hemocytometer and (ii) plating 2-3 of the dilutions in triplicate onto plates of SAB/agar (C. albicans and C. neoformans) or YPD/agar (S. cerevisiae). These plates were subsequently incubated at 30° C. for 24-48 hr to allow for the growth of colonies. The data were expressed as the ratio of viable cells/ml in the fatty acid analog treated subculture to the number of viable cells/ml in the negative (ethanol) control culture.

[2] = tested on: C. neoformans; experiment: Growth of C. neoformans cultures (absorbance at 600 nm); assay type: cell-based, Cryptococcus neoformans; settings: single 300 μM dose, exponential phase, 30° C., SAB, up to 24 h
Method: as §1
as §2, with “Amphotericin B (AmB; in the form of Fungizone, Squibb) was added (final concentration=55 μM) to another culture which served as the positive control. At T=0 and 0.5-24 h after addition of fatty acid analog to the subcultures, an aliquot was removed for determining the density of the subculture at 600 nm.” left out, “These plates were subsequently incubated at 30° C. for 24-48 hr to allow for the growth of colonies.” left out, “culture. […]” for “culture.”

[3] = tested on: C. albicans N-myristoylproteins; experiment: Metabolic labeling of cellular N-myristoylproteins with tritiated fatty acids; assay type: cell-based; settings: tritiated analog, 1 h, 30° C.
Method: (§3) Cells were labeled for 1 h with fatty acids of equal specific activity. Total cellular proteins were reduced, denatured and subjected to SDS-PAGE. Gels were treated overnight with 1 N hydrocylamine (pH 10) at room temperature followed by EN^3 HANCE. Fluorography was performed at -80° C. The exposure time for all gels was identical (2 weeks) as was the total amount of cellular protein added to each lane (100 μg).
(§4) Analysis of the incorporation of exogenous fatty acids into cellular proteins--Cultures of S. cerevisiae YM2061, C. albicans B311, and C. neoformans L210425 were grown overnight at 30° C. in YPD or SAB broth. In the morning, C. albicans and C. neoformans were diluted to an A600 =0.6. All cultures were subsequently shaken at 30° C. until they achieved an A600 =1.2. A 5 ml aliquot of each culture was then incubated at 30° C. with 100 μCi/ml of either [9,10(n)^3 H]myristate (NEN Research Products, Dupont, Boston, Mass.); [6,7(n)^3 H]4-oxatetradecanoate; [9,10(n)^3 H]6-oxatetradecanoate;[9,10(n)^3 H]11-oxatetradecanoate; or [10,11(n)^3 H]13-oxatetradecanoate (the final specific activity of all tritiated fatty acids=30 Ci/mmol, their final concentration=3.3 μM). The cultures were then chilled on ice for 5 min and the cells harvested by centrifugation at 4000×g for 5 min. The pellet was washed by gentle vortexing in 1 ml of phosphate buffered saline (PBS, maintained at 4° C.). The yeast cells were then pelleted by centrifugation (as above) and broken open by vortexing with 500 μm glass beads in a 200 μl solution containing 240 mM Tris-HCl, pH 6.8, 2% SDS, 0.4% β-mercaptoethanol, 0.002% bromophenol blue, and 10% glycerol. The solution was then boiled for 5 min and cellular debris was removed by centrifugation at 12,000×g for 10 min. One hundred μg [Lowry et al., J. Biol. Chem. 193, 265-275 (1951)] of lysate protein from each sample was subjected to denaturation, reduction and electrophoresis through 12% polyacrylamide gels containing 0.1% SDS [Laemmli, Nature 227, 680-685 (1970)]. Duplicate gels were incubated overnight with 1M Tris, pH 7.4, or 1N hydroxylamine, pH 10. Fluorography was performed by treating gels with EN^3 HANCE (NEN Research Products, Dupont) and, following drying, exposing them to Kodak XAR film at -80° C.

[4] = tested on: S. cerevisiae N-myristoylproteins; experiment: as above; assay type: cell-based; settings: tritiated analog, 1 h, 30° C.
Method: as §3, §4

[5] = tested on: C. neoformans N-myristoylproteins; experiment: as above; assay type: cell-based; settings: tritiated analog, 1 h, 30° C.
Method: as §3, §4

With `CCCCCCCCCCOCCC(=O)O` [O4, 4-oxatetradecanoic acid] the “time needed to produce the decrease in viable cells” value ([1]; 300 μM single dose) was at most 1 h, the “fungicidal / fungistatic effect on C. neoformans” value ([1]; 300 μM single dose, screening assay) was “fungicidal” and the log reduction at 300 µM ([1]; 300 μM single dose, relative to 0.1% EtOH control, read-out: decrease in viable cells (converted)) was 4. The log reduction at 300 µM ([1]; 300 μM, between 1 and 7 h after treatment, read-out: further reductions in viable cell number) was under 1, the “cell number after single dose” value ([1]; between 8 and 24 hr after single dose) was “gradual increase in cell number” and the “dose dependence of fungicidal activity” value ([1]; four doses, 100-300 μM) was “progressive reduction of viable cell number”. For the same compound, the “effect on growth of C. neoformans, as determined by optical density” value [2] was “growth arrest equivalent to that observed with 55 μM amphotericin B”, the “labeling of C. albicans N-myristoylproteins versus [3H]myristate” value [3] was “more intense labeling” and the “incorporation into the 55 kDa Gpal polypeptide” value [4] was “is incorporated”. For the same compound, the “labeling of S. cerevisiae N-myristoylproteins versus [3H]myristate” value [4] was “more intense labeling”, the “labeling of the 20 kDa Arfs” value [4] was “comparable intensity” and the “labeling of C. neoformans N-myristoylproteins versus [3H]myristate” value [5] was “comparable labeling”.
